Measured values published in the supplement of paper PMC10307832.

Compound: CCN1CCN(c2ccc(Nc3cc(N(C)C(=O)Nc4c(Cl)c(OC)cc(OC)c4Cl)ncn3)cc2)CC1 [BGJ398] + O=C(CCCCCCC(=O)Nc1ccccc1)NO [Vorinostat] (partner 1 µM)
Test: relative viability (nuclei count vs DMSO), 5 days (fraction); higher = more cells survive
Conditions: first compound 0.01 µM
Outline: (§1)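 Relative viability is defined as nuclei in treated wells over nuclei in vehicle wells. Duplicate plates were run and medians reported. Lung cancer cell lines in 1536-well plates were dosed by pin tool one day after seeding, with one drug or with a fixed anchor-drug dose plus five library-drug doses (not always all listed) in √10 steps, and nuclei were counted after 5 days.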

| Cell Line | relative viability |
| --- | --- |
| H3255 | 0.793 |
| COR-L23 | 0.443 |
| COR-L 105 | 0.656 |
| LOU-NH91 | 0.896 |
| ChaGo-K-1 | 0.67 |
| NCI-H2405 | 1.13 |
| HOP-62 | 0.694 |
| LU99A | 0.472 |
| BEN | 0.533 |
| HARA | 0.63 |
| HCC-78 | 0.427 |
| NCI-H322M | 1.04 |
| LCLC-97TM1 | 0.533 |
| NCI-H2009 | 0.714 |
| A-427 | 0.909 |
| NCI-H661 | 0.774 |
| NCI-H1734 | 0.794 |
| NCI-H460 | 0.737 |
| NCI-H2347 | 0.63 |
| SK-LU-1 | 0.764 |
| 201T | 1.2 |
| NCI-H1915 | 0.466 |
| HCC-827 | 0.763 |
| LXF-289 | 0.746 |
| NCI-H23 | 0.611 |
| NCI-H647 | 0.471 |

Same assay, conditions: first compound 0.03162 µM

| Cell Line | relative viability |
| --- | --- |
| COR-L23 | 0.52 |
| COR-L 105 | 0.727 |
| LOU-NH91 | 0.896 |
| ChaGo-K-1 | 0.775 |
| NCI-H2405 | 1.04 |
| HOP-62 | 0.618 |
| LU99A | 0.437 |
| BEN | 0.557 |
| HARA | 0.51 |
| HCC-78 | 0.417 |
| NCI-H322M | 0.853 |
| LCLC-97TM1 | 0.691 |
| NCI-H2009 | 0.729 |
| A-427 | 0.953 |
| NCI-H441 | 0.73 |
| NCI-H661 | 0.796 |
| NCI-H1734 | 0.913 |
| NCI-H460 | 0.706 |
| NCI-H2347 | 0.763 |
| SK-LU-1 | 0.773 |
| 201T | 0.947 |
| NCI-H1915 | 0.515 |
| LXF-289 | 0.666 |
| NCI-H23 | 0.668 |
| NCI-H647 | 0.549 |

Same assay, conditions: first compound 0.1 µM

| Cell Line | relative viability |
| --- | --- |
| H3255 | 0.77 |
| COR-L23 | 0.445 |
| COR-L 105 | 0.879 |
| LOU-NH91 | 0.957 |
| ChaGo-K-1 | 0.706 |
| NCI-H2405 | 0.919 |
| HOP-62 | 0.626 |
| LU99A | 0.542 |
| BEN | 0.594 |
| HARA | 0.669 |
| HCC-78 | 0.518 |
| NCI-H322M | 0.942 |
| LCLC-97TM1 | 0.743 |
| NCI-H2009 | 0.74 |
| A-427 | 0.895 |
| NCI-H441 | 0.822 |
| NCI-H661 | 0.806 |
| NCI-H1734 | 0.848 |
| NCI-H460 | 1.18 |
| NCI-H2347 | 0.606 |
| SK-LU-1 | 0.839 |
| 201T | 0.949 |
| NCI-H1915 | 0.597 |
| HCC-827 | 0.87 |
| LXF-289 | 0.769 |
| NCI-H23 | 0.722 |
| NCI-H647 | 0.482 |

Same assay, conditions: first compound 0.3162 µM

| Cell Line | relative viability |
| --- | --- |
| COR-L23 | 0.485 |
| COR-L 105 | 0.828 |
| LOU-NH91 | 0.748 |
| ChaGo-K-1 | 0.802 |
| NCI-H2405 | 0.938 |
| HOP-62 | 0.575 |
| LU99A | 0.451 |
| BEN | 0.553 |
| HARA | 0.598 |
| HCC-78 | 0.481 |
| NCI-H322M | 0.892 |
| LCLC-97TM1 | 0.781 |
| NCI-H2009 | 0.687 |
| A-427 | 0.698 |
| NCI-H441 | 0.916 |
| NCI-H661 | 0.731 |
| NCI-H1734 | 0.841 |
| NCI-H460 | 0.809 |
| NCI-H2347 | 0.55 |
| SK-LU-1 | 0.767 |
| 201T | 0.929 |
| NCI-H1915 | 0.54 |
| HCC-827 | 0.358 |
| LXF-289 | 0.608 |
| NCI-H23 | 0.53 |
| NCI-H647 | 0.51 |

Same assay, conditions: first compound 1 µM

| Cell Line | relative viability |
| --- | --- |
| H3255 | 0.795 |
| COR-L23 | 0.484 |
| COR-L 105 | 0.931 |
| LOU-NH91 | 0.883 |
| ChaGo-K-1 | 0.794 |
| NCI-H2405 | 1.01 |
| HOP-62 | 0.602 |
| LU99A | 0.486 |
| BEN | 0.544 |
| HARA | 0.593 |
| HCC-78 | 0.577 |
| NCI-H322M | 0.876 |
| LCLC-97TM1 | 0.753 |
| NCI-H2009 | 0.692 |
| A-427 | 0.713 |
| NCI-H441 | 0.81 |
| NCI-H661 | 0.801 |
| NCI-H1734 | 0.907 |
| NCI-H460 | 0.67 |
| NCI-H2347 | 0.608 |
| SK-LU-1 | 0.774 |
| 201T | 0.885 |
| NCI-H1915 | 0.486 |
| HCC-827 | 0.81 |
| LXF-289 | 0.73 |
| NCI-H23 | 0.557 |
| NCI-H647 | 0.626 |

Compound: CCN1CCN(c2ccc(Nc3cc(N(C)C(=O)Nc4c(Cl)c(OC)cc(OC)c4Cl)ncn3)cc2)CC1 [BGJ398] + CC(C)C[C@H](NC(=O)[C@H](Cc1ccccc1)NC(=O)c1cnccn1)B(O)O [Bortezomib] (partner 0.002 µM)
Test: as above
Conditions: first compound 0.01 µM
Outline: as §1

| Cell Line | relative viability |
| --- | --- |
| H3255 | 0.712 |
| COR-L23 | 0.942 |
| COR-L 105 | 0.717 |
| LOU-NH91 | 0.483 |
| ChaGo-K-1 | 1.12 |
| NCI-H2405 | 0.976 |
| HOP-62 | 0.726 |
| LU99A | 1.08 |
| BEN | 0.719 |
| HARA | 1.15 |
| HCC-78 | 0.373 |
| NCI-H322M | 1.14 |
| LCLC-97TM1 | 0.685 |
| NCI-H2009 | 0.918 |
| A-427 | 0.984 |
| NCI-H441 | 0.398 |
| NCI-H661 | 0.7 |
| NCI-H1734 | 0.95 |
| NCI-H460 | 1.17 |
| NCI-H2347 | 0.737 |
| SK-LU-1 | 1.11 |
| 201T | 1.24 |
| NCI-H1915 | 0.952 |
| HCC-827 | 0.942 |
| LXF-289 | 0.951 |
| NCI-H23 | 0.946 |
| NCI-H647 | 0.986 |

Same assay, conditions: first compound 0.03162 µM

| Cell Line | relative viability |
| --- | --- |
| COR-L23 | 0.975 |
| COR-L 105 | 0.514 |
| LOU-NH91 | 0.498 |
| ChaGo-K-1 | 0.928 |
| NCI-H2405 | 0.99 |
| HOP-62 | 1.05 |
| LU99A | 1.23 |
| BEN | 0.976 |
| HARA | 1.05 |
| HCC-78 | 0.59 |
| NCI-H322M | 0.989 |
| LCLC-97TM1 | 0.492 |
| NCI-H2009 | 1.09 |
| A-427 | 0.991 |
| NCI-H441 | 0.991 |
| NCI-H661 | 0.905 |
| NCI-H1734 | 0.889 |
| NCI-H460 | 1.23 |
| NCI-H2347 | 0.835 |
| SK-LU-1 | 1.27 |
| 201T | 1.08 |
| NCI-H1915 | 0.972 |
| HCC-827 | 0.945 |
| LXF-289 | 0.918 |
| NCI-H23 | 1.05 |
| NCI-H647 | 1.12 |

Same assay, conditions: first compound 0.1 µM

| Cell Line | relative viability |
| --- | --- |
| H3255 | 0.712 |
| COR-L23 | 1.08 |
| COR-L 105 | 0.703 |
| LOU-NH91 | 0.547 |
| ChaGo-K-1 | 0.957 |
| NCI-H2405 | 1 |
| HOP-62 | 1.12 |
| LU99A | 1.23 |
| BEN | 0.715 |
| HARA | 1.13 |
| HCC-78 | 0.468 |
| NCI-H322M | 1.21 |
| LCLC-97TM1 | 0.789 |
| NCI-H2009 | 0.955 |
| A-427 | 1.12 |
| NCI-H441 | 0.861 |
| NCI-H661 | 0.799 |
| NCI-H1734 | 0.933 |
| NCI-H460 | 1.45 |
| NCI-H2347 | 0.9 |
| SK-LU-1 | 1.51 |
| 201T | 1.11 |
| NCI-H1915 | 0.969 |
| HCC-827 | 1.08 |
| LXF-289 | 0.918 |
| NCI-H23 | 1.19 |
| NCI-H647 | 1.24 |

Same assay, conditions: first compound 0.3162 µM

| Cell Line | relative viability |
| --- | --- |
| H3255 | 0.439 |
| COR-L23 | 0.855 |
| COR-L 105 | 0.792 |
| LOU-NH91 | 0.54 |
| ChaGo-K-1 | 0.896 |
| NCI-H2405 | 0.98 |
| HOP-62 | 0.585 |
| LU99A | 1.13 |
| BEN | 0.656 |
| HARA | 1.08 |
| HCC-78 | 0.472 |
| NCI-H322M | 1.21 |
| LCLC-97TM1 | 0.529 |
| NCI-H2009 | 0.978 |
| A-427 | 0.774 |
| NCI-H441 | 0.4 |
| NCI-H661 | 0.767 |
| NCI-H1734 | 0.805 |
| NCI-H460 | 1.04 |
| NCI-H2347 | 0.88 |
| SK-LU-1 | 1.14 |
| 201T | 1.07 |
| NCI-H1915 | 0.977 |
| HCC-827 | 0.972 |
| LXF-289 | 0.888 |
| NCI-H23 | 1.2 |
| NCI-H647 | 0.864 |

Same assay, conditions: first compound 1 µM

| Cell Line | relative viability |
| --- | --- |
| H3255 | 0.69 |
| COR-L23 | 0.99 |
| COR-L 105 | 0.73 |
| LOU-NH91 | 0.472 |
| ChaGo-K-1 | 0.604 |
| NCI-H2405 | 0.785 |
| HOP-62 | 0.788 |
| LU99A | 1.09 |
| BEN | 0.619 |
| HARA | 0.978 |
| HCC-78 | 0.455 |
| NCI-H322M | 1.24 |
| LCLC-97TM1 | 0.329 |
| NCI-H2009 | 1.14 |
| A-427 | 0.743 |
| NCI-H441 | 0.472 |
| NCI-H661 | 1 |
| NCI-H1734 | 0.825 |
| NCI-H460 | 1.06 |
| NCI-H2347 | 0.784 |
| SK-LU-1 | 1.14 |
| 201T | 1.04 |
| NCI-H1915 | 0.864 |
| HCC-827 | 0.973 |
| LXF-289 | 0.896 |
| NCI-H23 | 1 |
| NCI-H647 | 0.793 |

Compound: CCN1CCN(c2ccc(Nc3cc(N(C)C(=O)Nc4c(Cl)c(OC)cc(OC)c4Cl)ncn3)cc2)CC1 [BGJ398] + Cc1nc(Nc2ncc(C(=O)Nc3c(C)cccc3Cl)s2)cc(N2CCN(CCO)CC2)n1 [Dasatinib] (partner 0.075 µM)
Test: as above
Conditions: first compound 0.01 µM
Outline: as §1

| Cell Line | relative viability |
| --- | --- |
| H3255 | 0.399 |
